# Test results taken from patent US11591326B2, “Inhibitors of protein arginine methyltransferase 5 (PRMT5), pharmaceutical products thereof, and methods thereof” (PHARMABLOCK SCIENCES (NANJING), INC., priority 2018, dated 2023).
# Target: Human recombinant PRMT5 in complex with human recombinant MEP50 (Homo sapiens (Human), UniProt O14744)
# Experiment: PRMT5/MEP50 AlphaLISA enzyme inhibitory assay
# Assay type: biochemical
# Conditions: PRMT5/MEP50 25 nM, SAM 10 μM, Biotin-H4 peptide 30 nM
# Excerpt: Human recombinant PRMT5 in complex with human recombinant MEP50, co-expressed in an insect cell/baculovirus expression system was purchased from Reaction Biology (Malvern, Pa.). […] Anti-H4R3-Me AlphaLISA acceptor beads and Streptavidin labeled AlphaLISA donor beads were obtained from PerkinElmer (Waltham, Mass.). S-adenosylmethionine (SAM), Tween20, dimethylsulfoxide (DMSO), and Tris buffer were obtained from Sigma at the highest level of purity available.
# General Procedure for PRMT5/MEP50 AlphaLISA Enzyme Inhibitory Assays: Assays were performed in the buffer consisting of 50 mM Tris, pH 8.5, 5 mM MgCl2, 50 mM NaCl with 0.01% Tween20 and 1 mM DTT added right before the assay. 2.5 μL of compound solution in the assay buffer with 4% DMSO and 5 μL of PRMT5/MRP50 complex/SAM mixture solution in the assay buffer which was pre-incubated for 30 minutes were added into a white low volume 384 well microtiter plate. This mixture solution was incubated for 15 minutes with gentle shaking at room temperature. Methyl transfer reaction was initiated by adding 2.5 μL of Biotin-H4 (1-21) peptide substrate solution in the assay buffer. Final concentrations of PRMT5/MEP50, SAM, Biotin-H4 peptide substrate, and DMSO were 25 nM, 10 μM, 30 nM, and 1%, respectively. The reaction was allowed to perform for 120 minutes in dark with gentle shaking at room temperature after which 5 μL of Anti-H4R3-Me AlphaLISA acceptor beads in detection buffer from the manufacturer was added into the reaction mixture followed by incubation for 60 minutes. 10 μL of Streptavidin labeled AlphaLISA donor beads in detection buffer was added into the mixture followed by 30 minute incubation. Final acceptor and donor beads concentrations were 10 μg/mL. Plates were read on an Envision multimode plate reader from PerkinElmer (Waltham Mass., USA) with an excitation wavelength of 680 nm and emission wavelength of 615 nm. IC50 values of inhibitors were obtained by fitting the fluorescence intensity vs inhibitor concentrations in a sigmoidal dose-response curve (variable slopes, four parameters) using Prism 7 (La Jolla, Calif.).
# Human recombinant PRMT5 in complex with human recombinant MEP50, sequence (O14744 whole entry): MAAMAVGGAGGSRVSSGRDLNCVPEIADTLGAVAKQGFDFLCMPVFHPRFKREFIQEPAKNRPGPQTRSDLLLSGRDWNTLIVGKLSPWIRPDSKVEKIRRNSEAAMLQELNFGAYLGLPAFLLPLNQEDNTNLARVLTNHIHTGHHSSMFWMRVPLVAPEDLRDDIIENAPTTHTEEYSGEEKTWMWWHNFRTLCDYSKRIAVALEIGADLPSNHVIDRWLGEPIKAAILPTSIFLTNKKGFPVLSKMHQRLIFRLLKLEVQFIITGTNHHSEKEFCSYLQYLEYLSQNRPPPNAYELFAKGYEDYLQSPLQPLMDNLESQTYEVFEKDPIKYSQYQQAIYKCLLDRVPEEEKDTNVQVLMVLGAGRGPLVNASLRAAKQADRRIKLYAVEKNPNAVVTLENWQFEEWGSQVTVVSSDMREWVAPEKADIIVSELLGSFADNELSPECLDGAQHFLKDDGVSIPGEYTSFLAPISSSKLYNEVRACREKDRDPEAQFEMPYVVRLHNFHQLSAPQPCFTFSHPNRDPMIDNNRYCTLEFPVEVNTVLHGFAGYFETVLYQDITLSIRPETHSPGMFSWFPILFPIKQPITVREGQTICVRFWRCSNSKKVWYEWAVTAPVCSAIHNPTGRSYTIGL
# Human recombinant PRMT5 in complex with human recombinant MEP50, sequence (Q9BQA1 whole entry partner): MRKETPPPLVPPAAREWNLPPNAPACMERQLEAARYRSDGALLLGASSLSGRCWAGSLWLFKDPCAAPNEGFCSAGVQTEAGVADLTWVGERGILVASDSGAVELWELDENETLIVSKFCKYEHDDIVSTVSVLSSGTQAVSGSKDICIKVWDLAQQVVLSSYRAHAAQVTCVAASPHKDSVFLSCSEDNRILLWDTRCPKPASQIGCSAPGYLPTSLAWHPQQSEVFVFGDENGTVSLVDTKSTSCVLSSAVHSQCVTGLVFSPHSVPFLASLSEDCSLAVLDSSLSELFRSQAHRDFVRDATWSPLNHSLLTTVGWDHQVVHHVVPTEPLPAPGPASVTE
row,IC50,Structure (SMILES)
1,13.6 nM,"O=C1c2cc(Nc3cnccn3)ccc2OCCN1C[C@H](O)CN1CCc2ccccc2C1 [Compound 38, (R)-4-(3-(3,4-dihydroisoquinolin-2(1H)-yl)-2-hydroxypropyl)-7-(pyrazin-2-ylamino)-3,4-dihydrobenzo[f][1,4]oxazepin-5(2H)-one]"
2,22.5 nM,"O=C1c2cc(Nc3cccnn3)ccc2OCCN1C[C@H](O)CN1CCc2ccccc2C1 [Compound 39, (R)-4-(3-(3,4-dihydroisoquinolin-2(1H)-yl)-2-hydroxypropyl)-7-(pyridazin-3-ylamino)-3,4-dihydrobenzo[f][1,4]oxazepin-5(2H)-one]"
3,12.2 nM,"Cn1ccc(Nc2ccc3c(c2)C(=O)N(C[C@H](O)CN2CCc4ccccc4C2)CCO3)cc1=O [Compound 40, (R)-4-(3-(3,4-dihydroisoquinolin-2(1H)-yl)-2-hydroxypropyl)-7-((1-methyl-2-oxo-1,2-dihydropyridin-4-yl)amino)-3,4-dihydrobenzo[f][1,4]oxazepin-5(2H)-one]"
4,9.9 nM,"Cn1nccc1Nc1ccc2c(c1)C(=O)N(C[C@H](O)CN1CCc3ccccc3C1)CCO2 [Compound 41, (R)-4-(3-(3,4-dihydroisoquinolin-2(1H)-yl)-2-hydroxypropyl)-7-((1-methyl-1H-pyrazol-5-yl)amino)-3,4-dihydrobenzo[f][1,4]oxazepin-5(2H)-one]"
5,20.2 nM,"Cc1nnc(Nc2ccc3c(c2)C(=O)N(C[C@H](O)CN2CCc4ccccc4C2)CCO3)o1 [Compound 42, (R)-4-(3-(3,4-dihydroisoquinolin-2(1H)-yl)-2-hydroxypropyl)-7-((5-methyl-1,3,4-oxadiazol-2-yl)amino)-3,4-dihydrobenzo[f][1,4]oxazepin-5(2H)-one]"
6,15.8 nM,"O=C1c2cc(Nc3ccnnc3)ncc2OCCN1CC(O)CN1CCc2ccccc2C1 (stereo not shown) [Compound 48, 4-(3-(3,4-dihydroisoquinolin-2(1H)-yl)-2-hydroxypropyl)-7-(pyridazin-4-ylamino)-3,4-dihydropyrido[4,3-f][1,4]oxazepin-5(2H)-one]"
7,690 nM,"O=C1c2nc(Nc3ccnnc3)ccc2OCCN1CC(O)CN1CCc2ccccc2C1 (stereo not shown) [Compound 49, 4-(3-(3,4-dihydroisoquinolin-2(1H)-yl)-2-hydroxypropyl)-7-(pyridazin-4-ylamino)-3,4-dihydropyrido[2,3-f][1,4]oxazepin-5(2H)-one]"
8,7.7 nM,"O=C1c2cc(Nc3ccnnc3)c(F)cc2OCCN1CC(O)CN1CCc2ccccc2C1 (stereo not shown) [Compound 50, 4-(3-(3,4-dihydroisoquinolin-2(1H)-yl)-2-hydroxypropyl)-8-fluoro-7-(pyridazin-4-ylamino)-3,4-dihydrobenzo[f][1,4]oxazepin-5(2H)-one]"

# More lines, now with the values behind:
row,Structure (SMILES),IC50
1,"CN1CC(Nc2ccc3c(c2)C(=O)N(C[C@H](O)CN2CCc4ccccc4C2)CCO3)CC1=O (stereo partly drawn) [Compound 43, 4-((R)-3-(3,4-dihydroisoquinolin-2(1H)-yl)-2-hydroxypropyl)-7-((1-methyl-5-oxopyrrolidin-3-yl)amino)-3,4-dihydrobenzo[f][1,4]oxazepin-5(2H)-one]",51.7 nM
2,"CN1C(=O)CN(CC(O)CN2CCc3ccccc3C2)C(=O)c2cc(Nc3ccnnc3)ccc21 (stereo not shown) [Compound 44, 4-(3-(3,4-dihydroisoquinolin-2(1H)-yl)-2-hydroxypropyl)-1-methyl-7-(pyridazin-4-ylamino)-3,4-dihydro-1H-benzo[e][1,4]diazepine-2,5-dione]",6.9 nM
3,"CN1CCN(CC(O)CN2CCc3ccccc3C2)C(=O)c2cc(Nc3ccnnc3)ccc21 (stereo not shown) [Compound 45, 4-(3-(3,4-dihydroisoquinolin-2(1H)-yl)-2-hydroxypropyl)-1-methyl-7-(pyridazin-4-ylamino)-1,2,3,4-tetrahydro-5H-benzo[e][1,4]diazepin-5-one]",9.6 nM
4,"CC(=O)N1CCC(Nc2ccc3c(c2F)C(=O)N(CC(O)CN2CCc4ccccc4C2)CCO3)CC1 (stereo not shown) [Compound 46, 7-((1-acetylpiperidin-4-yl)amino)-4-(3-(3,4-dihydroisoquinolin-2(1H)-yl)-2-hydroxypropyl)-6-fluoro-3,4-dihydrobenzo[f][1,4]oxazepin-5(2H)-one]",138 nM
5,"O=C1c2cc(Nc3ccnnc3)cnc2OCCN1CC(O)CN1CCc2ccccc2C1 (stereo not shown) [Compound 47, 4-(3-(3,4-dihydroisoquinolin-2(1H)-yl)-2-hydroxypropyl)-7-(pyridazin-4-ylamino)-3,4-dihydropyrido[3,2-f][1,4]oxazepin-5(2H)-one]",56.3 nM
6,"O=C1c2cc(Nc3ccnnc3)cc(F)c2OCCN1CC(O)CN1CCc2ccccc2C1 (stereo not shown) [Compound 51, 4-(3-(3,4-dihydroisoquinolin-2(1H)-yl)-2-hydroxypropyl)-9-fluoro-7-(pyridazin-4-ylamino)-3,4-dihydrobenzo[f][1,4]oxazepin-5(2H)-one]",6.5 nM
7,"CC(=O)N1CC2(CC(Nc3ccc4c(c3)C(=O)N(CC(O)CN3CCc5ccccc5C3)CCO4)C2)C1 (stereo not shown) [Compound 54, 7-((2-acetyl-2-azaspiro[3.3]heptan-6-yl)amino)-4-(3-(3,4-dihydroisoquinolin-2(1H)-yl)-2-hydroxypropyl)-3,4-dihydrobenzo[f][1,4]oxazepin-5(2H)-one]",138 nM
8,"CC(=O)N1C2CCC1CC(Nc1ccc3c(c1)C(=O)N(CC(O)CN1CCc4ccccc4C1)CCO3)C2 (stereo not shown) [Compound 55, 7-((8-acetyl-8-azabicyclo[3.2.1]octan-3-yl)amino)-4-(3-(3,4-dihydroisoquinolin-2(1H)-yl)-2-hydroxypropyl)-3,4-dihydrobenzo[f][1,4]oxazepin-5(2H)-one]",195 nM
9,"CC(=O)N1CC2C(C1)C2Nc1ccc2c(c1)C(=O)N(CC(O)CN1CCc3ccccc3C1)CCO2 (stereo not shown) [Compound 56, 7-((3-acetyl-3-azabicyclo[3.1.0]hexan-6-yl)amino)-4-(3-(3,4-dihydroisoquinolin-2(1H)-yl)-2-hydroxypropyl)-3,4-dihydrobenzo[f][1,4]oxazepin-5(2H)-one]",1100 nM
10,"CC(=O)N1CCC(Nc2ccc3c(c2)C(=O)N(C[C@H](O)CN2CCc4ccccc4C2)C2CC3C2)CC1 [Compound 57a, (R)-8-((1-acetylpiperidin-4-yl)amino)-2-(3-(3,4-dihydroisoquinolin-2(1H)-yl)-2-hydroxypropyl)-2,3,4,5-tetrahydro-1H-3,5-methanobenzo[c]azepin-1-one]",92.5 nM
11,"CC(=O)N1CCC(Nc2ccc3c(c2)C(=O)N(C[C@@H](O)CN2CCc4ccccc4C2)C2CC3C2)CC1 [Compound 57b, (S)-8-((1-acetylpiperidin-4-yl)amino)-2-(3-(3,4-dihydroisoquinolin-2(1H)-yl)-2-hydroxypropyl)-2,3,4,5-tetrahydro-1H-3,5-methanobenzo[c]azepin-1-one]",209 nM
